Test: CD69 Whole Blood Assay (CD69 Hu Blood FACS)
Format: cell-based, human
Conditions: Lymphocyte; human whole blood, anti-IgM activated B lymphocytes, FACS; IC70; Table 2 (unit inferred); read-out: CD69 Hu Blood FACS (IC70)
Outline: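 Human whole blood stimulated by crosslinking surface IgM with goat F(ab′)2 anti-human IgM; inhibition of CD69 expression on B lymphocytes measured by flow cytometry.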

Structure (SMILES) | IC70
Cn1cc(-c2ccnc(N3CCn4c(cc5c4CC(C)(C)C5)C3=O)c2CO)cc(Nc2ccc(C(=O)N3CCOCC3)cn2)c1=O [Example 269, 3-[3-(hydroxymethyl)-4-[1-methyl-5-[[5-(morpholine-4-carbonyl)-2-pyridyl]amino]-6-oxo-3-pyridyl]-2-pyridyl]-7,7-dimethyl-1,2,6,8-tetrahydrocyclopenta[3,4]pyrrolo[3,5-b]pyrazin-4-one] | 25.1 nM
CN1CCn2nc(Nc3cc(-c4ccnc(N5CCn6c(cc7c6CCCC7)C5=O)c4CO)cn(C)c3=O)nc2C1 [Example 270, 2-[3-(hydroxymethyl)-4-[1-methyl-5-[(7-methyl-6,8-dihydro-5H-[1,2,4]triazolo[1,5-a]pyrazin-2-yl)amino]-6-oxo-3-pyridyl]-2-pyridyl]-3,4,6,7,8,9-hexahydropyrazino[1,2-a]indol-1-one] | 5900 nM
C[C@H]1CN(C2COC2)CCN1c1ccc(Nc2cc(-c3ccnc(N4CCn5c(cc6c5CC(C)(C)C6)C4=O)c3CO)c[nH]c2=O)nc1 [Example 271, 3-[3-(hydroxymethyl)-4-[5-[[5-[(2S)-2-methyl-4-(oxetan-3-yl)piperazin-1-yl]-2-pyridyl]amino]-6-oxo-1H-pyridin-3-yl]-2-pyridyl]-7,7-dimethyl-1,2,6,8-tetrahydrocyclopenta[3,4]pyrrolo[3,5-b]pyrazin-4-one] | 24.5 nM
Cn1cc(-c2ccnc(N3CCn4c(cc5c4CC(C)(C)C5)C3=O)c2CO)cc(Nc2ccc(C3CN(C4COC4)C3)cn2)c1=O [Example 272, 3-[3-(hydroxymethyl)-4-[1-methyl-5-[[5-[1-(oxetan-3-yl)azetidin-3-yl]-2-pyridyl]amino]-6-oxo-3-pyridyl]-2-pyridyl]-7,7-dimethyl-1,2,6,8-tetrahydrocyclopenta[3,4]pyrrolo[3,5-b]pyrazin-4-one] | 34 nM
Cn1cc(-c2ccnc(N3CCn4c(cc5c4CC(C)(C)C5)C3=O)c2CO)cc(Nc2ccccn2)c1=O [Example 273, 3-[3-(hydroxymethyl)-4-[1-methyl-6-oxo-5-(2-pyridylamino)-3-pyridyl]-2-pyridyl]-7,7-dimethyl-1,2,6,8-tetrahydrocyclopenta[3,4]pyrrolo[3,5-b]pyrazin-4-one] | 299 nM
Cc1cnc(Nc2cc(-c3ccnc(N4CCn5c(cc6c5CC(C)(C)C6)C4=O)c3CO)cn(C)c2=O)cn1 [Example 274, 3-[3-(hydroxymethyl)-4-[1-methyl-5-[(5-methylpyrazin-2-yl)amino]-6-oxo-3-pyridyl]-2-pyridyl]-7,7-dimethyl-1,2,6,8-tetrahydrocyclopenta[3,4]pyrrolo[3,5-b]pyrazin-4-one] | 466 nM
Cn1cc(-c2ccnc(N3CCn4c(cc5c4CC(C)(C)C5)C3=O)c2CO)cc(Nc2ccc(F)cn2)c1=O [Example 275, 3-[4-[5-[(5-fluoro-2-pyridyl)amino]-1-methyl-6-oxo-3-pyridyl]-3-(hydroxymethyl)-2-pyridyl]-7,7-dimethyl-1,2,6,8-tetrahydrocyclopenta[3,4]pyrrolo[3,5-b]pyrazin-4-one] | 423 nM
Cn1cc(-c2ccnc(N3CCn4c(cc5c4CC(C)(C)C5)C3=O)c2CO)cc(Nc2ccc(C#N)cn2)c1=O [Example 276, 6-[[5-[2-(7,7-dimethyl-4-oxo-1,2,6,8-tetrahydrocyclopenta[3,4]pyrrolo[3,5-b]pyrazin-3-yl)-3-(hydroxymethyl)-4-pyridyl]-1-methyl-2-oxo-3-pyridyl]amino]pyridine-3-carbonitrile] | 358 nM
COc1ccc(Nc2cc(-c3ccnc(N4CCn5c(cc6c5CC(C)(C)C6)C4=O)c3CO)cn(C)c2=O)nc1 [Example 277, 3-[3-(hydroxymethyl)-4-[5-[(5-methoxy-2-pyridyl)amino]-1-methyl-6-oxo-3-pyridyl]-2-pyridyl]-7,7-dimethyl-1,2,6,8-tetrahydrocyclopenta[3,4]pyrrolo[3,5-b]pyrazin-4-one] | 339 nM
Cn1cc(-c2ccnc(N3CCn4c(cc5c4CC(C)(C)C5)C3=O)c2CO)cc(Nc2ccc(C3CC3)cn2)c1=O [Example 278, 3-[4-[5-[(5-cyclopropyl-2-pyridyl)amino]-1-methyl-6-oxo-3-pyridyl]-3-(hydroxymethyl)-2-pyridyl]-7,7-dimethyl-1,2,6,8-tetrahydrocyclopenta[3,4]pyrrolo[3,5-b]pyrazin-4-one] | 3200 nM
Cn1cc(-c2ccnc(N3CCn4c(cc5c4CC(C)(C)C5)C3=O)c2CO)cc(Nc2ccc(C(F)(F)F)cn2)c1=O [Example 279, 3-[3-(hydroxymethyl)-4-[1-methyl-6-oxo-5-[[5-(trifluoromethyl)-2-pyridyl]amino]-3-pyridyl]-2-pyridyl]-7,7-dimethyl-1,2,6,8-tetrahydrocyclopenta[3,4]pyrrolo[3,5-b]pyrazin-4-one] | 2100 nM
Cn1nc(Nc2cc(-c3ccnc(N4CCn5c(cc6c5CC(C)(C)C6)C4=O)c3CO)cn(C)c2=O)cc1C(=O)N1CCOCC1 [Example 280, 3-[3-(hydroxymethyl)-4-[1-methyl-5-[[1-methyl-5-(morpholine-4-carbonyl)pyrazol-3-yl]amino]-6-oxo-3-pyridyl]-2-pyridyl]-7,7-dimethyl-1,2,6,8-tetrahydrocyclopenta[3,4]pyrrolo[3,5-b]pyrazin-4-one] | 14.1 nM
Cc1ccc(Nc2cc(-c3ccnc(N4CCn5c(cc6c5CC(C)(C)C6)C4=O)c3CO)cn(C)c2=O)nc1 [Example 281, 3-[3-(hydroxymethyl)-4-[1-methyl-5-[(5-methyl-2-pyridyl)amino]-6-oxo-3-pyridyl]-2-pyridyl]-7,7-dimethyl-1,2,6,8-tetrahydrocyclopenta[3,4]pyrrolo[3,5-b]pyrazin-4-one] | 718 nM
C[C@H]1CN(C2COC2)CCN1c1ccc(Nc2cc(-c3ccnc(-n4ncc5c6c(sc5c4=O)CC(C)(C)C6)c3CO)cn(C)c2=O)nc1 [Example 282, 3-[3-(hydroxymethyl)-4-[1-methyl-5-[[5-[(2S)-2-methyl-4-(oxetan-3-yl)piperazin-1-yl]-2-pyridyl]amino]-6-oxo-3-pyridyl]-2-pyridyl]-7,7-dimethyl-6,8-dihydrocyclopenta[3,4]thieno[1,3-d]pyridazin-4-one] | 17.4 nM
Cc1cc(Nc2cc(-c3ccnc(N4CCn5c(cc6c5CC(C)(C)C6)C4=O)c3CO)cn(C)c2=O)no1 [Example 283, 3-[3-(hydroxymethyl)-4-[1-methyl-5-[(5-methylisoxazol-3-yl)amino]-6-oxo-3-pyridyl]-2-pyridyl]-7,7-dimethyl-1,2,6,8-tetrahydrocyclopenta[3,4]pyrrolo[3,5-b]pyrazin-4-one] | 143 nM
Cn1cc(-c2ccnc(N3CCc4c(c(F)c5n4CCCC5)C3=O)c2CO)cc(Nc2cc3n(n2)CCN(C2COC2)C3)c1=O [Example 284, 10-fluoro-2-[3-(hydroxymethyl)-4-[1-methyl-5-[[5-(oxetan-3-yl)-6,7-dihydro-4H-pyrazolo[1,5-a]pyrazin-2-yl]amino]-6-oxo-3-pyridyl]-2-pyridyl]-3,4,6,7,8,9-hexahydropyrido[3,4-b]indolizin-1-one] | 131 nM
Cn1cc(-c2ccnc(N3CCn4c(cc5c4CC(C)(C)C5)C3=O)c2CO)cc(Nc2cn(C3COC3)cn2)c1=O [Example 285, 3-[3-(hydroxymethyl)-4-[1-methyl-5-[[1-(oxetan-3-yl)imidazol-4-yl]amino]-6-oxo-3-pyridyl]-2-pyridyl]-7,7-dimethyl-1,2,6,8-tetrahydrocyclopenta[3,4]pyrrolo[3,5-b]pyrazin-4-one] | 175 nM
Cn1cc(-c2ccnc(N3CCn4c(cc5c4CC(C)(C)C5)C3=O)c2CO)cc(Nc2ccon2)c1=O [Example 286, 3-[3-(hydroxymethyl)-4-[5-(isoxazol-3-ylamino)-1-methyl-6-oxo-3-pyridyl]-2-pyridyl]-7,7-dimethyl-1,2,6,8-tetrahydrocyclopenta[3,4]pyrrolo[3,5-b]pyrazin-4-one] | 167 nM
CC1c2cc(Nc3cc(-c4ccnc(N5CCn6c(cc7c6CCCC7)C5=O)c4CO)cn(C)c3=O)nn2CCN1C (stereo not drawn) [Example 287, 2-[4-[5-[(4,5-dimethyl-6,7-dihydro-4H-pyrazolo[1,5-a]pyrazin-2-yl)amino]-1-methyl-6-oxo-3-pyridyl]-3-(hydroxymethyl)-2-pyridyl]-3,4,6,7,8,9-hexahydropyrazino[1,2-a]indol-1-one] | 127 nM
Cc1cc(Nc2cc(-c3ccnc(-n4ncc5c6c(sc5c4=O)CC(C)(C)C6)c3CO)cn(C)c2=O)no1 [Example 288, 3-[3-(hydroxymethyl)-4-[1-methyl-5-[(5-methylisoxazol-3-yl)amino]-6-oxo-3-pyridyl]-2-pyridyl]-7,7-dimethyl-6,8-dihydrocyclopenta[3,4]thieno[1,3-d]pyridazin-4-one] | 229 nM
Cn1cc(-c2ccnc(N3CCn4c(cc5c4CC(C)(C)C5)C3=O)c2CO)cc(Nc2cc[nH]n2)c1=O [Example 289, 3-[3-(hydroxymethyl)-4-[1-methyl-6-oxo-5-(1H-pyrazol-3-ylamino)-3-pyridyl]-2-pyridyl]-7,7-dimethyl-1,2,6,8-tetrahydrocyclopenta[3,4]pyrrolo[3,5-b]pyrazin-4-one] | 214 nM
Cn1ccc(Nc2cc(-c3ccnc(N4CCn5c(cc6c5CC(C)(C)C6)C4=O)c3CO)cn(C)c2=O)n1 [Example 290, 3-[3-(hydroxymethyl)-4-[1-methyl-5-[(1-methylpyrazol-3-yl)amino]-6-oxo-3-pyridyl]-2-pyridyl]-7,7-dimethyl-1,2,6,8-tetrahydrocyclopenta[3,4]pyrrolo[3,5-b]pyrazin-4-one] | 113 nM
Cc1cc(Nc2cc(-c3ccnc(-n4ncc5c6c(sc5c4=O)CCCC6)c3CO)cn(C)c2=O)no1 [Example 291, 3-[3-(hydroxymethyl)-4-[1-methyl-5-[(5-methylisoxazol-3-yl)amino]-6-oxo-3-pyridyl]-2-pyridyl]-6,7,8,9-tetrahydrobenzothiopheno[2,3-d]pyridazin-4-one] | 843 nM
Cc1cc(Nc2cc(-c3ccnc(-n4ncc5c6c(sc5c4=O)CC(C)(C)C6)c3CO)cn(C)c2=O)nn1C [Example 292, 3-[4-[5-[(1,5-dimethylpyrazol-3-yl)amino]-1-methyl-6-oxo-3-pyridyl]-3-(hydroxymethyl)-2-pyridyl]-7,7-dimethyl-6,8-dihydrocyclopenta[3,4]thieno[1,3-d]pyridazin-4-one] | 118 nM

From patent publication US10045983B2, “Heteroaryl pyridone and aza-pyrodine compounds” (Genentech, Inc., priority 2011, dated 2018)
